According to ChEMBL document CHEMBL3351574, “Antitubercular activity of quinolizidinyl/pyrrolizidinylalkyliminophenazines” (Bioorg Med Chem, 2014):
≈ marks a conversion by molar mass, not a printed value. Counter-ions that a name gives are not always drawn.

Legend:
[1] = tested on: Mycobacterium tuberculosis; test: Antitubercular activity against Mycobacterium tuberculosis; format: functional
[2] = tested on: Mycobacterium tuberculosis; format: functional; conditions: H37Ra, 168 h
[3] = tested on: Mycobacterium tuberculosis; test: microbe, parasite or virus in culture; conditions: isolate 439/11, 168 h
Description: Antitubercular activity against Mycobacterium tuberculosis isolate 439/11 after 7 days by REMA resazurin microtiter assay

[4] = tested on: Mycobacterium avium; format: functional; conditions: 168 h
[5] = tested on: Mycobacterium tuberculosis; test: microbe, parasite or virus in culture; conditions: H37Rv, 168 h
Description: Antitubercular activity against Mycobacterium tuberculosis H37Rv after 7 days by REMA resazurin microtiter assay

[6] = tested on: Mycobacterium tuberculosis; test: microbe, parasite or virus in culture; conditions: isolate 917/10, 168 h
Description: Antitubercular activity against Mycobacterium tuberculosis isolate 917/10 after 7 days by REMA resazurin microtiter assay

[7] = tested on: Mycobacterium tuberculosis; test: microbe, parasite or virus in culture; conditions: isolate 778/10, 168 h
Description: Antitubercular activity against Mycobacterium tuberculosis isolate 778/10 after 7 days by REMA resazurin microtiter assay

[8] = tested on: Mycobacterium tuberculosis; test: microbe, parasite or virus in culture; conditions: isolate 756/10, 168 h
Description: Antitubercular activity against Mycobacterium tuberculosis isolate 756/10 after 7 days by REMA resazurin microtiter assay

[9] = tested on: Mycobacterium tuberculosis; test: microbe, parasite or virus in culture; conditions: isolate 29/10, 168 h
Description: Antitubercular activity against Mycobacterium tuberculosis isolate 29/10 after 7 days by REMA resazurin microtiter assay

[10] = Cytotoxicity against african green monkey Vero 76 cells assessed as reduction in cell viability after 48 to 96 hrs by MTT method; format: cell-based; conditions: chlorocebus sabaeus
[11] = in vitro; conditions: human, HMEC1 cells
Description: Selectivity index, ratio of CC50 for human HMEC1 cells to MIC for Mycobacterium tuberculosis H37Rv

[12] = in vitro; conditions: monkey, Vero 76 cells
Description: Selectivity index, ratio of CC50 for african green monkey Vero 76 cells to MIC for Mycobacterium tuberculosis H37Rv

[13] = Cytotoxicity against human HMEC1 cells assessed as reduction in cell viability after 72 hrs by MTT method; format: cell-based, HMEC-1
[14] = in vitro; conditions: human, MT4 cells
Description: Selectivity index, ratio of CC50 for human MT4 cells to MIC for Mycobacterium tuberculosis H37Rv

[15] = Cytotoxicity against human MT4 cells assessed as reduction in cell viability after 96 hrs by MTT method; format: cell-based

| SMILES | MIC [1] [µg/mL] | MIC [3] [µM] | MIC [5] [µM] | MIC [6] [µM] | MIC [7] [µM] | MIC [8] [µM] | MIC [9] [µM] | also measured |
| --- | --- | --- | --- | --- | --- | --- | --- | --- |
| Cc1c(N)ccc(NC[C@@H]2CCCN3CCCC[C@H]23)c1C | ≤ 0.5 |  |  |  |  |  |  |  |
| c1ccc(Nc2cc3nc4ccccc4n(-c4ccccc4)c-3c/c2=N/CCC23CCCN2CCC3)cc1 |  | 0.88 (≈ 0.44 µg/mL) | 0.88 (≈ 0.44 µg/mL) | 7.04 (≈ 3.52 µg/mL) | 1.76 (≈ 0.879 µg/mL) | 28.1 (≈ 14.1 µg/mL) | 0.88 (≈ 0.44 µg/mL) | MIC [2]: 3.52 µM (≈ 1.76 µg/mL); MIC [4]: 28.1 µM |
| FC(F)(F)c1cccc(NC[C@@H]2CCCN3CCCC[C@H]23)c1 | 2.5 (≈ 8 µM) |  |  |  |  |  |  |  |
| C(=C1c2ccccc2-c2ccccc21)[C@@H]1CCCN2CCCC[C@H]12 | 0.156 (≈ 0.495 µM) |  |  |  |  |  |  |  |
| c1ccc(Nc2cc3nc4ccccc4n(-c4ccccc4)c-3c/c2=N/C[C@H]2CCCN3CCCC[C@H]23)cc1 |  |  | 7.79 (≈ 4 µg/mL) | 1.95 (≈ 1 µg/mL) | 1.95 (≈ 1 µg/mL) |  | 1.95 (≈ 1 µg/mL) | MIC [2]: 3.89 µM (≈ 2 µg/mL); MIC [4]: > 16 µg/mL |
| c1ccc(Nc2cc3nc4ccccc4n(-c4ccccc4)c-3c/c2=N/CCC[C@H]2CCCN3CCCC[C@H]23)cc1 |  |  | 7.38 (≈ 4 µg/mL) |  |  |  |  | MIC [2]: 0.92 µM (≈ 0.498 µg/mL); CC50 [10]: 9.6 µM; selectivity ratio [11]: 0.74; selectivity ratio [12]: 1.3; CC50 at 72 h [13]: 5.5 µM; selectivity ratio [14]: 0.78; CC50 at 96 h [15]: 5.8 µM |
| OC(C[C@@H]1CCCN2CCCC[C@H]12)(c1ccccc1)c1ccc(-c2ccccc2)cc1 (stereo partly specified) | ≤ 1 |  |  |  |  |  |  |  |
| CC[C@@H](CO)NCCN[C@@H](CC)CO [ETHAMBUTOL] |  | 1.8 (≈ 0.368 µg/mL) | 14.4 (≈ 2.95 µg/mL) | 14.4 (≈ 2.95 µg/mL) | 7.21 (≈ 1.47 µg/mL) | 14.4 (≈ 2.95 µg/mL) | 3.61 (≈ 0.738 µg/mL) |  |
| Clc1ccc(Nc2cc3nc4ccccc4n(-c4ccc(Cl)cc4)c-3c/c2=N/CC[C@H]2CCCN3CCCC[C@H]23)cc1 |  | 0.84 (≈ 0.501 µg/mL) | 0.84 (≈ 0.501 µg/mL) | 0.84 (≈ 0.501 µg/mL) | 0.84 (≈ 0.501 µg/mL) | 0.84 (≈ 0.501 µg/mL) | 0.84 (≈ 0.501 µg/mL) | MIC [4]: 3.35 µM; CC50 [10]: 9.5 µM; selectivity ratio [11]: 2.74; selectivity ratio [12]: 11.3; CC50 at 72 h [13]: 2.3 µM; selectivity ratio [14]: 2.14; CC50 at 96 h [15]: 1.8 µM |
| Clc1cccc(C(C[C@@H]2CCCN3CCCC[C@H]23)c2ccccc2)c1 (stereo partly specified) | ≤ 0.1 |  |  |  |  |  |  |  |
| CN[C@@H]1[C@H](O[C@H]2[C@H](O[C@H]3[C@H](O)[C@@H](O)[C@H](N=C(N)N)[C@@H](O)[C@@H]3N=C(N)N)O[C@@H](C)[C@]2(O)C=O)O[C@@H](CO)[C@H](O)[C@H]1O [STREPTOMYCIN SULFATE] |  | 0.17 | 0.69 | 0.69 | 0.34 | 0.69 | 0.69 |  |
| c1ccc(Nc2cc3nc4ccccc4n(-c4ccccc4)c-3c/c2=N/CC[C@@H]2CCCN3CCCC[C@H]23)cc1 |  |  | 7.58 (≈ 4 µg/mL) | 1.89 (≈ 0.997 µg/mL) | 1.89 (≈ 0.997 µg/mL) |  | 1.89 (≈ 0.997 µg/mL) | MIC [2]: 3.79 µM (≈ 2 µg/mL); MIC [4]: 15.2 µM |
| Cc1ccc(Nc2cc3nc4ccccc4n(-c4ccc(C)cc4)c-3c/c2=N/C[C@@H]2CCCN3CCCC[C@H]23)cc1 |  |  |  |  |  |  |  | selectivity ratio [11]: 0.4; CC50 at 72 h [13]: 2.6 µM |
| CO[C@H]1/C=C/O[C@@]2(C)Oc3c(C)c(O)c4c(O)c(c(/C=N/N5CCN(C)CC5)c(O)c4c3C2=O)NC(=O)/C(C)=C\C=C\[C@H](C)[C@H](O)[C@@H](C)[C@@H](O)[C@@H](C)[C@H](OC(C)=O)[C@@H]1C [RIFAMPIN] |  | 0.08 (≈ 0.0658 µg/mL) | 0.3 (≈ 0.247 µg/mL) | 0.61 (≈ 0.502 µg/mL) | 0.15 (≈ 0.123 µg/mL) | 0.3 (≈ 0.247 µg/mL) | 0.15 (≈ 0.123 µg/mL) |  |
